Assay results: patent US9849131B2 (AUTIFONY THERAPEUTICS LIMITED, priority 2009, dated 2017)

Assays:
Male CD-1 mice = experiment: Psychostimulant (amphetamine)-induced hyperactivity in mice (Example 93); details: mouse; for Total Distance Travelled (cm): 60 minutes, mean ± sem
[1] = test system: high voltage-activated potassium currents in MNTB neurons (presumed to be mediated by Kv3.1 channels); experiment: Potassium currents recorded from MNTB neurons, in vitro (Example 91); format: cell-based, mouse; details: 10 microM in the continuing presence of TEA (1 mM); voltage steps to +40 mV
Protocol: Male CBA/Ca mice (aged 12-16 days) were used in these experiments (in accordance with the UK Animals Scientific Procedures Act, 1986). Brain slices containing the medial nucleus of the trapezoid body (MNTB) were prepared as described previously (Brew and Forsythe, 2005).
Chemicals and reagents were purchased from Sigma, (Poole, UK) unless otherwise noted. EXAMPLE 19 was dissolved in DMSO and diluted in ACSF to the required concentration.
Recordings from identified MNTB neurons were conducted as previously described (Brew and Forsythe, 2005). Slices was placed in a superfusion chamber on an inverted microscope stage and continuously perfused with gassed (95% O2-5% CO2) ACSF at a rate of 1 ml min^−1 at room temperature. Whole-cell recordings were made from visually identified MNTB neurons using an […] amplifier (Molecular Devices, Union City, Calif., USA). Patch solution comprised (in mM) potassium gluconate (97.5), KCl (32.5), Hepes (40), EGTA (5), MgCl2 (1), Na2 phosphocreatin (5), pH 7.2 with KOH. Pipettes had resistances of 3-5 MΩ and series resistances were 6-10 MΩ (compensated by 70%, 10 μs lag). Access resistance was frequently monitored and the recording discarded if increases were more than 2 MΩ. […]

common marmosets = experiment: Behaviour of the common marmoset on threatening human approach (Example 94); format: in vivo; details: for Number of Jumps / Number of postures: 2 minute test, mean ± sem
Excerpt: Central anxiolytic effects of a test compound can be assessed from the ability of the compound to reduce the characteristic defensive postures of marmosets in response to a threatening approach by a human. The test can also be used to assess the sedative or hypnotic effects of a test compound from its ability to reduce the number of jumps made by the animals. The study was based on the method described in Costall, B. et al (1988) Br. J. Pharmac. 95 p 475P. Laboratory-bred (GSK SpA, Italy) male and female common marmosets over 2 years of age, weighing 300-500 g were used in the study. The animals were caged in couples in a housing room maintained at 25±1° C., 60% humidity, and a 12 hour light/dark cycle (lights on at 0600, with 30 minutes simulated dawn and twilight). Both animals in each pair were involved in the test, which was carried out with the animals in their home cage.
The postures recorded in the test were those described by Costall et al supra; • Genital presenting (“Tail Posture”): the animal's back is turned to the observer with elevation of the tail to expose the genital region; • Scent-marking: the animal scent-marks the cage surfaces using circum-anal and circum-genital scent glands; • Slit-stare: the animal stares at the observer with flattened ear tufts and eyes reduced to “slits” • Arch-piloerection: the animal moves around the cage with arched back and full-body piloerection, failing to make eye contact with the observer
The number of jumps from the back of the cage to the cage front provided an index of locomotor activity, which could be used to assess the potential for a hypnotic effect, sedation, or locomotor stimulation produced by the test compound.

[2] = test system: parvalbumin-positive interneurons in the somatosensory cortex; experiment: Firing of parvalbumin-positive interneurons in somatosensory cortex slices, in vitro (Example 90); format: cell-based, mouse; details: vs TEA alone, p<0.05
[3] = Blood concentrations in satellite animals of the electroshock seizure study; format: in vivo, rat; set-up: unbound concentration in blood: unit not given here; details: for unbound concentration in blood: rat
Protocol: Testing involved determining the threshold for tonic hindlimb extensor seizures using a Hugo Sachs Electronik stimulator which delivers a constant current of 0.3 second duration, 50 Hz, sinewave form, fully adjustable between 1 and 300 mA. Stimuli were delivered via corneal electrodes (Stean T O, Atkins A R, Heidbreder C A, Quinn L P, Trail B K, Upton N. (2005) Br J Pharmacol. 144(5):628-35). Seizure threshold was determined using the ‘up and down’ method of Kimball et al. (1957)(Kimball A W, Burnett W T Jr, Doherty D G. (1957) Radiat Res. 7(1):1-12). The first animal tested in each group was stimulated with a current that might be expected to be close to the threshold for induction of a seizure. If a tonic seizure was not induced, then the next animal in the group received a stimulus 5 mA higher. If a tonic seizure was induced, then the next animal received a stimulus 5 mA lower. This is repeated for all animals within the control (vehicle) group. In the case of groups treated with a test compound steps of 5 to 10 mA were used. At the end of the study, blood samples were taken for analysis of the drug concentrations in this compartment (n=4/group).
Blood concentrations of Compound 19 measured in satellite animals 2 hours after dosing were 5.3 and 9.11 μg/mL following the doses of 30 and 60 mg/kg p.o., respectively.

[4] = 0.3 mg/kg p.o. 2 hours before test
[5] = 1 mg/kg p.o. 2 hours before test
[6] = 3 mg/kg p.o. 2 hours before test

In the case of `CC[C@H]1NC(=O)N(c2ccc(Oc3ccc(C)c(OC)c3)nc2)C1=O` [Example 19, (5R)-5-ethyl-3-(6-{[4-methyl-3-(methyloxy)phenyl]oxy}-3-pyridinyl)-2,4-imidazolidinedione], the “effect on the increase in total distance travelled produced by amphetamine” value (Male CD-1 mice; 30 mg/kg p.o.) is reported as “significantly reduced”, the “effect on the increase in locomotor activity induced by amphetamine” value (Male CD-1 mice; 60 mg/kg p.o., similar to clozapine 3 mg/kg i.p.) is reported as “further reduced” and the “Total Distance Travelled (cm)” value (Male CD-1 mice; AMPH 2 mg/kg i.p. + compound 30 mg/kg p.o. 30 minutes before) is reported as 5790 ± 1436 cm. The “Total Distance Travelled (cm)” value (Male CD-1 mice; AMPH 2 mg/kg i.p. + compound 60 mg/kg p.o. 30 minutes before) was 1494 ± 378 cm, the “reversal of TEA-induced reduction of high voltage-activated potassium current amplitude” value [1] was “reversed” and the “Number of Jumps” value (common marmosets; [4]) was 21.3 ± 2.7. For the same compound, the Number of postures (common marmosets; [4]) was 12.2 ± 1.03, the “effect on the number of jumps” value (common marmosets; 1 mg/kg p.o.) was “significantly reduced” and the “Number of Jumps” value (common marmosets; [5]) was 15.3 ± 2.5. For the same compound, the Number of postures (common marmosets; [5]) was 10.0 ± 1.2, the “effect on the number of jumps” value (common marmosets; 3 mg/kg p.o.) was “significantly reduced” and the “Number of Jumps” value (common marmosets; [6]) was 11.5 ± 1.9. The Number of postures (common marmosets; [6]) was 9.7 ± 1.1, the “effects on postures” value (common marmosets; any dose (0.3, 1, 3 mg/kg p.o.)) was “without any effects” and the “reversal of TEA-induced lowering of maximal firing frequency” value ([2]; TEA (0.5 mM) plus compound at 10 μM) was “significantly reversed”. The “reversal of TEA-induced lowering of maximal firing frequency” value ([2]; TEA (0.5 mM) plus compound) was “significantly reversed”, the concentration at 2 h ([3]; CD, whole blood, oral, rat satellite animals, 2 hours after 60 mg/kg p.o.) was 9110 ng/mL and the “unbound concentration in blood” value ([3]; 2 hours after 30 mg/kg p.o.) was 1.3. The “unbound concentration in blood” value ([3]; 2 hours after 60 mg/kg p.o.) was 2.21.
